Reference: publication PMC10850954, “HDAC6/aggresome processing pathway importance for inflammasome formation is context-dependent” (The Journal of Biological Chemistry, 2024)

Key:
HA-F10-FKBP F36V = target: T1, HA-F10-FKBP F36V (Homo sapiens, UniProt P62942, F37V); experiment: dTAG-induced degradation of DARPin F10-FKBPF36V in THP-1 cells (immunoblot); type: cell-based; conditions: F10-FKBPF36V THP-1 cells, within 6 h of dTAG addition
T1 construct: expressed in transfected cells; host or cells: THP-1, lentiviral transduction, single-cell clone

NLRP3 inflammasome = experiment: IL-1β release in THP-1 cells after nigericin stimulation; type: cell-based, human; conditions: dTAG 1 μM
HDAC6 [1] = target: T2, HDAC6 (Homo sapiens, UniProt Q9UBN7); set-up: endogenous in cells; method as in PMID 37481141; conditions: THP-1 cells; cited from earlier work
T2 sequence (Q9UBN7 1-1215): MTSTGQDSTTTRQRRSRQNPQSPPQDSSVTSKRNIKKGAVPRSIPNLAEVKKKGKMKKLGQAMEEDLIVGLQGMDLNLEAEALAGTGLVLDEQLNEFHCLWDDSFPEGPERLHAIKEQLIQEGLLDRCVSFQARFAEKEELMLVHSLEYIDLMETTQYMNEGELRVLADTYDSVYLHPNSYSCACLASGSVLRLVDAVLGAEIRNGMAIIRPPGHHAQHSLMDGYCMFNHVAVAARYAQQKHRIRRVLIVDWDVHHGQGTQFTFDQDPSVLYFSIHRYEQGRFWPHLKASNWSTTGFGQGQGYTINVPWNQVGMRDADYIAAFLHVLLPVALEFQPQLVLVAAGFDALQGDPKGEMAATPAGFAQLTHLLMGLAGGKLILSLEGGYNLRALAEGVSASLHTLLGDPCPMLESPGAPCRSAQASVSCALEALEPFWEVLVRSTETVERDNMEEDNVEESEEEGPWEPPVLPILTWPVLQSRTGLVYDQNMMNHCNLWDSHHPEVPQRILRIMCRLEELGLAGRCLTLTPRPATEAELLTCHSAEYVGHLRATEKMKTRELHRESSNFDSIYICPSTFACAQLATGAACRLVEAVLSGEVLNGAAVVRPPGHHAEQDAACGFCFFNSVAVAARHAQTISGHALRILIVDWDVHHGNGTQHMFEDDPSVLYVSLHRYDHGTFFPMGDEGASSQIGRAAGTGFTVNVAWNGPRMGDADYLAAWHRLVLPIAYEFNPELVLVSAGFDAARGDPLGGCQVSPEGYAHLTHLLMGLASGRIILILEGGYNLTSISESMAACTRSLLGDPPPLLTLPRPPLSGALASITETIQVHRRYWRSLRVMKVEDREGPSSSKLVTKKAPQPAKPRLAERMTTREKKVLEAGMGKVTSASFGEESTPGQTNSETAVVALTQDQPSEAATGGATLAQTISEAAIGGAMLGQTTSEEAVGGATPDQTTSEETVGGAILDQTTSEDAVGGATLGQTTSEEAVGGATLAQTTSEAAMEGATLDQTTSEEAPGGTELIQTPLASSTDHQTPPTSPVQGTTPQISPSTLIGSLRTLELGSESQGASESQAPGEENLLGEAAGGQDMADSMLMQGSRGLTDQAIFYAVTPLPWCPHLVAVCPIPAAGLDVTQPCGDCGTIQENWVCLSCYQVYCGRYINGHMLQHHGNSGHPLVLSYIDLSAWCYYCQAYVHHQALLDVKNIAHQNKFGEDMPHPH

HDAC6 [2] = target: T2, HDAC6; set-up: method as in PMID 26471297; conditions: BMDMs; cited from earlier work

T1 sequence (P62942 2-108 F37V limits assumed): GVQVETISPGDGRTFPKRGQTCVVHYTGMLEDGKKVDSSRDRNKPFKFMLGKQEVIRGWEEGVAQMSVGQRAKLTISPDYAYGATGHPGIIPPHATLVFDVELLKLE
T1 sequence (Q96SW2 whole entry, further chain): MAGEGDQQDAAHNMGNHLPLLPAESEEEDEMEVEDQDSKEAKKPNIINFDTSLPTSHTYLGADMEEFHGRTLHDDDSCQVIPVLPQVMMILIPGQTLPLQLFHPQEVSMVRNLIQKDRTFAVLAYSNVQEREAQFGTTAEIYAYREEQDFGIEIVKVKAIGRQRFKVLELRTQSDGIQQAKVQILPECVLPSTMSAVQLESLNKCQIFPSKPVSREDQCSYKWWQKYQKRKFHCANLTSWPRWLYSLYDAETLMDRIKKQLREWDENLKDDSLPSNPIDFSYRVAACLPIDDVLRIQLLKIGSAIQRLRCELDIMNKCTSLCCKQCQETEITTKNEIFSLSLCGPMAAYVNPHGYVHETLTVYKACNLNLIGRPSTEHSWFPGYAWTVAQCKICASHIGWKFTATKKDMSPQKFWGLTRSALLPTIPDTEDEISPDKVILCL

degradation of DARPin F10 (HA-F10-FKBP F36V) | SMILES | IL-1β release (NLRP3 inflammasome; F10-FKBPF36V THP-1 cells, PMA 0.5 μM, nigericin 15 μM, compared to WT THP-1) | IL-1β release (NLRP3 inflammasome; parental WT THP-1, PMA 0.5 μM 3 h, nigericin 15 μM 3 h, MCC950 10 μM) | IL-1β release (HDAC6 [1]) | mIL-1β level (HDAC6 [2])
efficiently degraded | CC[C@H](C(=O)N1CCCC[C@H]1C(=O)O[C@H](CCc1ccc(OC)c(OC)c1)c1ccccc1OCC(=O)NCCCCCCOc1cccc2c1C(=O)N(C1CCC(=O)NC1=O)C2=O)c1cc(OC)c(OC)c(OC)c1 (some centres unmarked) [dTAG] | partial, but significant, recovery | comparable | – | –
– | CN1CCc2c(c3ccccc3n2Cc2ccc(C(=O)NO)cc2)C1 [Tubastatin A] | – | – | reduced IL-1β release | did not impact the mIL-1β level
